From US20060258711A1, “Treatment of drug abuse” (Wyeth, priority 2005, published 2006)

Tested on: rats
Assay: Open field test of locomotor activity with or without cocaine
Type: in vivo, rat
Conditions: dosed 1 hour before 5-minute open field test
Protocol: Rats were dosed either with vehicle or with cocaine in the presence or absence of Compound 1 (0.1 mg/kg. sc). One hour after dosing (i.p. & s.c.), rats were put in a open field, where distance moved and zones crossed were recorded by the ethovision program.
Animals were brought to the lab room 1 hour before the start of the experiment. Rats were injected with compound(s) 1 hour before being placed in the open field. Rats were then placed in open field, and the test lasted for five minutes.

NCC1Cc2cc(F)cc(-c3c(Cl)cccc3Cl)c2O1 (centres unmarked) [Compound 1, (7-(2,6-dichlorophenyl)-5-fluoro-2,3-dihydrobenzofuran-2-yl)methanamine]
reversal of the hyperactivity produced by cocaine (0.1 mg/kg sc + cocaine 3 mg/kg ip, FIG. 1): completely reversed
effect on locomotor activity alone (0.1 mg/kg sc + vehicle): no effect
